Source: ChEMBL document CHEMBL1201862, “PubChem BioAssay data set” (2004)
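Results reflect a 48-hour exposure of cells in 96-well plates to compound at five concentrations. At the GI50, growth is halved.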 Activity calls are given as the source filed them. No stated cut-off is given here; in the data, active = GI50 up to about 1.1 µM and inactive = higher.

Key:
Assay in all cases: NCI-60 cell line screen, 48 h
786-0 = test system: 786-0
A498 = test system: A498
A549 = test system: A549
ACHN = test system: ACHN
BT-549 = test system: BT-549
CAKI-1 = test system: CAKI-1
CCRF-CEM = test system: CCRF-CEM
COLO 205 = test system: COLO 205
DU-145 = test system: DU-145
EKVX = test system: EKVX
HCC 2998 = test system: HCC 2998
HCT-116 = test system: HCT-116
HCT-15 = test system: HCT-15
HL-60 = test system: HL-60
HOP-62 = test system: HOP-62
HOP-92 = test system: HOP-92
HT-29 = test system: HT-29
Hs-578T = test system: Hs-578T
IGROV-1 = test system: IGROV-1
K562 = test system: K562
KM12 = test system: KM12
LOX IMVI = test system: LOX IMVI
M14 = test system: M14
MCF7 = test system: MCF7
MDA-MB-231 = test system: MDA-MB-231
MDA-MB-435 = test system: MDA-MB-435
MDA-N = test system: MDA-N
Malme-3M = test system: Malme-3M
NCI-H226 = test system: NCI-H226
NCI-H23 = test system: NCI-H23
NCI-H460 = test system: NCI-H460
NCI-H522 = test system: NCI-H522
NCI/ADR-RES = test system: NCI/ADR-RES
OVCAR-3 = test system: OVCAR-3
OVCAR-4 = test system: OVCAR-4
OVCAR-5 = test system: OVCAR-5
OVCAR-8 = test system: OVCAR-8
PC-3 = test system: PC-3
RPMI-8226 = test system: RPMI-8226
RXF 393 = test system: RXF 393
SF-268 = test system: SF-268
SF-295 = test system: SF-295
SF-539 = test system: SF-539
SK-MEL-28 = test system: SK-MEL-28
SK-MEL-2 = test system: SK-MEL-2
SK-MEL-5 = test system: SK-MEL-5
SK-OV-3 = test system: SK-OV-3
SN12C = test system: SN12C
SNB-19 = test system: SNB-19
SNB-75 = test system: SNB-75
SR = test system: SR
SW-620 = test system: SW-620
T47D = test system: T47D
TK-10 = test system: TK-10
U-251 = test system: U-251
UACC-257 = test system: UACC-257
UACC-62 = test system: UACC-62
UO-31 = test system: UO-31
MOLT-4 = test system: MOLT-4

SMILES: CSC(=S)N/N=C/c1ccccc1
- GI50 (786-0): 39.4 µM (inactive)
- GI50 (A498): > 100 µM (inactive)
- GI50 (A549): 43.2 µM (inactive)
- GI50 (ACHN): 43.4 µM (inactive)
- GI50 (BT-549): 46.3 µM (inactive)
- GI50 (CAKI-1): 24.5 µM (inactive)
- GI50 (CCRF-CEM): 26 µM (inactive)
- GI50 (COLO 205): 31.5 µM (inactive)
- GI50 (DU-145): 42.3 µM (inactive)
- GI50 (EKVX): 24.4 µM (inactive)
- GI50 (HCC 2998): > 100 µM (inactive)
- GI50 (HCT-116): 29.6 µM (inactive)
- GI50 (HCT-15): 34.4 µM
- GI50 (HL-60): 36 µM (inactive)
- GI50 (HOP-62): 40.7 µM (inactive)
- GI50 (HOP-92): 26.9 µM (inactive)
- GI50 (HT-29): 33 µM (inactive)
- GI50 (Hs-578T): > 100 µM (inactive)
- GI50 (IGROV-1): 22.3 µM (inactive)
- GI50 (K562): 42.5 µM (inactive)
- GI50 (KM12): 65.6 µM (inactive)
- GI50 (LOX IMVI): 45.1 µM (inactive)
- GI50 (M14): 29.4 µM (inactive)
- GI50 (MCF7): 33.6 µM (inactive)
- GI50 (MDA-MB-231): > 100 µM (inactive)
- GI50 (MDA-MB-435): 47.4 µM (inactive)
- GI50 (MDA-N): 41.9 µM (inactive)
- GI50 (Malme-3M): 36.5 µM (inactive)
- GI50 (NCI-H226): 40.6 µM (inactive)
- GI50 (NCI-H23): 33.5 µM (inactive)
- GI50 (NCI-H460): 43.7 µM (inactive)
- GI50 (NCI-H522): 52.6 µM (inactive)
- GI50 (NCI/ADR-RES): 25.4 µM (inactive)
- GI50 (OVCAR-3): 42 µM (inactive)
- GI50 (OVCAR-4): 24.3 µM (inactive)
- GI50 (OVCAR-5): > 100 µM (inactive)
- GI50 (OVCAR-8): 37.1 µM (inactive)
- GI50 (PC-3): 97.9 µM (inactive)
- GI50 (RPMI-8226): 36.4 µM (inactive)
- GI50 (RXF 393): 28.8 µM (inactive)
- GI50 (SF-268): 40.1 µM (inactive)
- GI50 (SF-295): 39.2 µM (inactive)
- GI50 (SF-539): 56.6 µM (inactive)
- GI50 (SK-MEL-28): 94.2 µM (inactive)
- GI50 (SK-MEL-2): > 100 µM (inactive)
- GI50 (SK-MEL-5): 22.5 µM (inactive)
- GI50 (SK-OV-3): > 100 µM (inactive)
- GI50 (SN12C): 50.2 µM (inactive)
- GI50 (SNB-19): 53.7 µM (inactive)
- GI50 (SNB-75): 58.7 µM (inactive)
- GI50 (SR): 40.8 µM (inactive)
- GI50 (SW-620): 54.8 µM (inactive)
- GI50 (T47D): 16.3 µM (inactive)
- GI50 (TK-10): > 100 µM (inactive)
- GI50 (U-251): 52.6 µM (inactive)
- GI50 (UACC-257): > 100 µM (inactive)
- GI50 (UACC-62): 37.4 µM (inactive)
- GI50 (UO-31): 34.7 µM (inactive)

SMILES: COC(=O)C1OC(O[C@H]2CC[C@]3(C)[C@H]4CC=C5[C@@H]6CC(C)(C)CC[C@]6(C(=O)OC)CC[C@@]5(C)[C@]4(C)CC[C@H]3C2(C)C)C(O)C(O)C1O (stereo not given in full)
- GI50 (786-0): 6.73 µM (inactive)
- GI50 (A498): 19.8 µM (inactive)
- GI50 (A549): 7.14 µM (inactive)
- GI50 (ACHN): 11.8 µM (inactive)
- GI50 (BT-549): 17.8 µM (inactive)
- GI50 (CAKI-1): 8.85 µM (inactive)
- GI50 (CCRF-CEM): 5.66 µM (inactive)
- GI50 (COLO 205): 16.1 µM (inactive)
- GI50 (DU-145): 14.5 µM (inactive)
- GI50 (EKVX): 12.4 µM (inactive)
- GI50 (HCC 2998): 7.76 µM (inactive)
- GI50 (HCT-116): 12.3 µM (inactive)
- GI50 (HCT-15): 13.9 µM
- GI50 (HL-60): 18.1 µM (inactive)
- GI50 (HOP-62): 18 µM (inactive)
- GI50 (HOP-92): 19.4 µM (inactive)
- GI50 (HT-29): 10.5 µM (inactive)
- GI50 (Hs-578T): 19.9 µM (inactive)
- GI50 (IGROV-1): 18 µM (inactive)
- GI50 (K562): 14.9 µM (inactive)
- GI50 (KM12): 7.52 µM (inactive)
- GI50 (LOX IMVI): 6.67 µM (inactive)
- GI50 (M14): 16.2 µM (inactive)
- GI50 (MCF7): 12.5 µM (inactive)
- GI50 (MDA-MB-231): 4.45 µM (inactive)
- GI50 (MDA-MB-435): 16.5 µM (inactive)
- GI50 (MDA-N): 17 µM (inactive)
- GI50 (MOLT-4): 11.4 µM (inactive)
- GI50 (Malme-3M): 21 µM (inactive)
- GI50 (NCI-H226): 18.3 µM (inactive)
- GI50 (NCI-H23): 11.9 µM (inactive)
- GI50 (NCI-H460): 8.38 µM (inactive)
- GI50 (NCI-H522): 15.4 µM (inactive)
- GI50 (NCI/ADR-RES): 15.8 µM (inactive)
- GI50 (OVCAR-3): 4.34 µM (inactive)
- GI50 (OVCAR-4): 14.4 µM (inactive)
- GI50 (OVCAR-5): 14.6 µM (inactive)
- GI50 (OVCAR-8): 13.6 µM (inactive)
- GI50 (PC-3): 15.1 µM (inactive)
- GI50 (RPMI-8226): 20.1 µM (inactive)
- GI50 (RXF 393): 5.62 µM (inactive)
- GI50 (SF-268): 17.8 µM (inactive)
- GI50 (SF-295): 15.1 µM (inactive)
- GI50 (SK-MEL-28): 18.5 µM (inactive)
- GI50 (SK-MEL-2): 17.3 µM (inactive)
- GI50 (SK-MEL-5): 18.2 µM (inactive)
- GI50 (SK-OV-3): 20.2 µM (inactive)
- GI50 (SN12C): 13.1 µM (inactive)
- GI50 (SNB-19): 15.2 µM (inactive)
- GI50 (SNB-75): 17.1 µM (inactive)
- GI50 (SR): 3.72 µM (inactive)
- GI50 (SW-620): 17 µM (inactive)
- GI50 (T47D): 19.7 µM (inactive)
- GI50 (U-251): 11.4 µM (inactive)
- GI50 (UACC-257): 19.5 µM (inactive)
- GI50 (UACC-62): 14.7 µM (inactive)
- GI50 (UO-31): 19.3 µM (inactive)
